Values joined by “and” are separate entries in the source; they are usually repeats but may differ in a detail not shown here. Equal values may be shown once. “Also recorded” adds a separate entry of the source.
Tests used:
Daudi cells [1] = assay: KILR ADCC killing assay: KILR-transfected Daudi cells with purified NK cells (% dead cells); type: cell-based; settings: for % dead cells, KILR ADCC killing assay: KILR Daudi cells with purified NK cells, duplicate columns
Text: In some embodiments, CD38-ABT ARMs bind to target cells and antibodies, e.g., human antibodies. In some embodiments, such ternary structures present antibodies to effector cells such as NK cell and bind to, e.g., CD16a receptors. […] Daudi cells were transfected with KILR reporter construct (DiscoverX #97-0002). An attenuated lentivirus was designed to deliver a Moloney Murine Leukemia Virus (MMLV) engineered to drive expression of a housekeeping gene tagged with Enhanced ProLabel (ePL) a beta-Galactosidase (beta-gal) reporter fragment. This construct was designed to remain inside cells. Death leads to the release of the KILR reporter protein into the medium. Detection reagent (DiscoverX #97-0001L) contained the complementing beta-gal reporter fragment enzyme acceptor (EA). The two components combined to generate a chemiluminescent signal.

NK cells = assay: Depletion of CD38-expressing effector cells: purified NK cells, 18 h, Zombie viability dye; type: cell-based, human; settings: I-9 300 nM-10 nM, Daratumumab 3 ug/mL-0.1 ug/mL, IvIG 10 ug/mL, 18 h (FIG. 4)
Text: In some embodiments, provided technologies provides various advantages compared to existing CD38-based technologies, e.g., those using CD38 antibodies. […] As appreciated by those skilled in the art, various technologies can be utilized to assess depleting of CD38-expressing effector cells. In one example, NK cells were purified from frozen stock using 3×10^7 PBMC preparations ([…] technologies) using EasySep™ Human NK cell Isolation Kit […] Technologies (cat #17955) according to manufacturer's instructions. NK cells were plated at the density of 2×10^6 cells per mL of OPTIMEM media, in a 100 uL volume per well of round bottom 96 well plates. Daratumumab was added to a final concentration range of 3 ug/mL to 0.1 ug/mL. […] IvIG was used at a final concentration of 10 ug/mL. Cells were mixed by pipetting up and down and incubated for 18 h at 37° C. At the end of the incubation period, cells were centrifuged at 400 g for 5 min and re-suspended in PBS. Following this, cells were stained with 1 uM Zombie viability dye (Biolegend, catalog #423111) according to manufacturer's instructions and incubated for 15 minutes at room temperature. […] Cells were analyzed on BD FACSCelesta flow cytometer (BD Biosciences). […] Percentages of Zombie green positive NK cells were analyzed and graphed using GraphPad Prism software.

[2] = test system: Effector cells (ADCC reporter cells) with Daudi cells; assay: ADCC reporter assay: Daudi cells, IVIG and ADCC reporter effector cells (luciferase, RLU); type: cell-based; settings: IVIG; for Luminescence, ADCC reporter assay: duplicate columns
Method: Daudi (ATCC CCL-213) cells were resuspended in Opti-MEM (Thermo Fisher Scientific #31985070), counted (Life Technologies Countless II cell counter) and plated (5,000 cells in 25 uL/well; Corning plates: 3917). Compounds w diluted in DMSO (MP 191418) to 1000× the starting concentration used in the assay into a 96 well polypropylene plate (Corning 3357). They were then serially diluted in ½ log increments to generate 8 concentrations in DMSO (assay dependent). These DMSO stocks were then step diluted 1/250 into Opti-MEM. Step diluted compound range was then added into the polypropylene assay plate 25 uL/well. The human antibody solution (Grifols IVIG Fleogogamma #61953-0005-2) was diluted to 40 ug/mL and added 25 uL/well. Effector cells (ADCC reporter cells—Promega kit: G7018) were added 37,500 in 25 uL/well. The assay was then incubated 18 h at 37° C. Following the induction period, the plate was equilibrated to 25° C. followed the addition of the luciferase substrate (75 uL/well, 1 vial in 10 mL of Bio-Glo assay buffer, Promega kit: G7018). The luminescence was measured (Biotek Synergy H1 microplate reader).

Daudi cells [3] = assay: Ternary binding assay: recruitment of PE-labeled human IgG1k to Daudi cells (flow cytometry, MFI); type: cell-based; settings: duplicate columns
Method: Various technologies can be utilized to assess and/or characterize recruitment of antibodies to target cells, e.g., cancer cells. One such assay is a ternary binding assay. An exemplary protocol is described herein. Compounds were diluted in DMSO (MP 191418) to 1000× the starting concentration used in the assay into a 96 well polypropylene plate (Corning 3357). They were then serially diluted in ½ log increments to generate 8-12 concentrations in DMSO (assay dependent). These DMSO stocks were then step diluted 1/100 into PBS (VWR Cat. #20012043). Step diluted compound range was then added into the polypropylene assay plate 1/10 the volume of the assay volume. Daudi (ATCC CCL-213), a non-adherent cell line, were counted and centrifuged and resuspended at a concentration of 100,000 cells per 90 ul in Flow buffer: 1% BSA (American Bio AB01088-00100); 0.5 mM EDTA (VWR 45001-122); PBS (VWR Cat. #20012043) with 11.1 ug/mL human IgG1k Phycoerythrin labeled (SouthernBiotech #0151K-09 PE). The cells were then added into the polypropylene plate with the step diluted compounds and incubated at 37° C. for 30 min. At the end of the incubation, the cells were centrifuged and washed 2× with How buffer containing 0.5% Tween 20 (BP337-500). Samples were analyzed on a BD FacsCelesta. Mean fluorescence was analyzed using Graphpad Prism and curves were fit using log(inhibitor) vs. response—Variable slope (four parameters).

How did the EC50 (Daudi cells [1]; KILR Daudi cells, purified NK cells, one set of experiments (FIG. 3)) turn out when `CCCCC[C@@H]1NC(=O)[C@H](CCCNC(=N)N)NC(=O)[C@H](C)NC(=O)CSC[C@@H](C(=O)NCCOCCOCCOCCOCCOCCOCCn2nnc3c2CCC2C(CC3)C2COC(=O)N2CCC(C(=O)NCC(=O)N[C@H](CCC(=O)N[C@H](CCC(=O)N[C@H](CCC(=O)NCCCCCCCCCCCC(=O)O)C(=O)N[C@H](CCC(=O)N[C@H](CCC(=O)NCC(=O)NCC(=O)N[C@@H](CC(=O)O)C(=O)N[C@H]3CSSC[C@@H](C(=O)N[C@H](C(=O)O)[C@@H](C)O)NC(=O)[C@H](Cc4c[nH]c5ccccc45)NC(=O)[C@H](C(C)C)NC(=O)[C@H](CC(C)C)NC(=O)[C@H](CCC(=O)O)NC(=O)CNC(=O)[C@H](CC(C)C)NC(=O)[C@H](Cc4c[nH]cn4)NC(=O)[C@H](Cc4c[nH]c5ccccc45)NC(=O)[C@H](C)NC3=O)C(=O)O)C(=O)O)C(=O)O)C(=O)O)CC2)NC(=O)[C@H](CC(=O)O)NC(=O)[C@H](CCCCC)NC(=O)[C@H](Cc2ccc(-c3ccccc3)cc2)NC(=O)[C@H](CC(C)C)NC(=O)[C@H](C(C)C)NC(=O)CNC(=O)[C@H](CC(=O)O)NC(=O)[C@H](Cc2c[nH]cn2)NC(=O)[C@H](Cc2ccc(O)cc2)NC1=O` (stereo partly shown) [I-9] was run?
The EC50 was 6.7 nM.

And the “% dead cells, KILR ADCC killing assay” value (Daudi cells [1]; compound 0.3 nM)?
The value was 5.1% and 5.5%.

What about the “% dead cells, KILR ADCC killing assay” value (Daudi cells [1]; compound 1 nM) of the same compound?
The value was 4.8% and 4.7%.

And the “% dead cells, KILR ADCC killing assay” value (Daudi cells [1]; compound 3 nM)?
The value was 5%.

And the “% dead cells, KILR ADCC killing assay” value (Daudi cells [1]; compound 10 nM)?
Its value is 5.3% and 5.7%.

What about the “% dead cells, KILR ADCC killing assay” value (Daudi cells [1]; compound 30 nM) of the same compound?
Its value is 6.1% and 6.9%.

What about the “% dead cells, KILR ADCC killing assay” value (Daudi cells [1]; compound 100 nM) of the same compound?
The value was 6.6% and 7.4%.

What about the “% dead cells, KILR ADCC killing assay” value (Daudi cells [1]; compound 300 nM) of the same compound?
The value was 7.3% and 8.1%.

And the “% dead cells, KILR ADCC killing assay” value (Daudi cells [1]; compound 1000 nM)?
The value was 6.8% and 6.7%.

And the “Depletion of CD38-expressing effector cells (NK cells)” value (NK cells)?
Its value is “did not deplete CD38-expressing effector cells; also recorded: do not significantly deplete effector cells”.

What about the EC50 ([2]; ADCC reporter assay) of the same compound?
The EC50 was 5.5 nM.

And the EC70 ([2]; ADCC reporter cells, 18 h, one set of experiment (FIG. 2))?
The EC70 was “about 0.92 nM”.

And the “Luminescence, ADCC reporter assay” value ([2]; compound 0.3 nM, 18 h)?
The value was 18458 RLU and 20362 RLU.

What about the “Luminescence, ADCC reporter assay” value ([2]; compound 1 nM, 18 h) of the same compound?
Its value is 20777 RLU and 20342 RLU.

What about the “Luminescence, ADCC reporter assay” value ([2]; compound 3 nM, 18 h) of the same compound?
The value was 24006 RLU and 24206 RLU.

And the “Luminescence, ADCC reporter assay” value ([2]; compound 10 nM, 18 h)?
The value was 35274 RLU and 44761 RLU.

What about the “Luminescence, ADCC reporter assay” value ([2]; compound 30 nM, 18 h) of the same compound?
The value was 55170 RLU and 59273 RLU.

And the “Luminescence, ADCC reporter assay” value ([2]; compound 100 nM, 18 h)?
Its value is 60746 RLU and 68867 RLU.

What about the “Luminescence, ADCC reporter assay” value ([2]; compound 300 nM, 18 h) of the same compound?
The value was 55313 RLU and 76306 RLU.

What about the “Luminescence, ADCC reporter assay” value ([2]; compound 1000 nM, 18 h) of the same compound?
Its value is 51790 RLU and 65856 RLU.

What about the “MFI, recruitment of PE-labeled human IgG1k to Daudi cells” value (shortened to “MFI, recruitment”) (Daudi cells [3]; compound 0.03 nM) of the same compound?
The value was 2297 and 2037.

What about the “MFI, recruitment” value (Daudi cells [3]; compound 0.1 nM) of the same compound?
Its value is 2514 and 2495.

What about the “MFI, recruitment” value (Daudi cells [3]; compound 0.3 nM) of the same compound?
The value was 2861 and 2727.

And the “MFI, recruitment” value (Daudi cells [3]; compound 1 nM)?
The value was 3063 and 2925.

And the “MFI, recruitment” value (Daudi cells [3]; compound 3 nM)?
Its value is 4268 and 4210.

What about the “MFI, recruitment” value (Daudi cells [3]; compound 10 nM) of the same compound?
Its value is 7133 and 6933.

What about the “MFI, recruitment” value (Daudi cells [3]; compound 30 nM) of the same compound?
Its value is 10630 and 8384.

What about the “MFI, recruitment” value (Daudi cells [3]; compound 100 nM) of the same compound?
Its value is 9899 and 10608.

And the “MFI, recruitment” value (Daudi cells [3]; compound 300 nM)?
The value was 7835 and 7873.

What about the “MFI, recruitment” value (Daudi cells [3]; compound 1000 nM) of the same compound?
Its value is 4929 and 5108.

What about the “MFI, recruitment” value (Daudi cells [3]; compound 3000 nM) of the same compound?
Its value is 4383 and 4301.
